Source: patent US8604042B2, “Bi-aryl meta-pyrimidine inhibitors of kinases” (TargeGen, Inc., priority 2005, dated 2013)
pEC50, pIC50: −log10 of the molar value. Entries after “also recorded” stand apart in the source; their conditions may differ. Structures can show the parent of a compound that is named as a salt. Where two headings read alike, the source gives them in different places.

Experiments:
[1] = test system: EOL-1, a chronic eosinophilic leukemia (CEL) derived line (FIP1L1-PDFRA-positive); assay: XTT cell proliferation assay, EOL-1; assay type: cell-based; settings: for pIC50: Homo sapiens, EOL1, XTT assay, read-out: Cellular IC50 EOL-1
[2] = test system: fibroblasts from sclerotic patients and healthy fibroblasts; assay: Extracellular matrix protein production in fibroblasts (real-time PCR); assay type: cell-based, human
Description: An in-vitro study was conducted using compound CLXII to examine the production of extracellular matrix proteins responsible for fibrosis in fibroblasts from sclerotic patients and healthy fibroblasts.

[3] = test system: bleomycin induced dermal fibrosis; assay: Mouse model of bleomycin induced dermal fibrosis; assay type: in vivo; settings: low dose (30 mg/kg, bid) and high dose (100 mg/kg, bid)
Description: In vivo studies using compound CLXII were conducted in a mouse model of bleomycin induced dermal fibrosis. FIG. 41 indicates the results of administering a low dose (30 mg/kg, bid) and a high dose (100 mg/kg, bid) of CLXII.

[4] = Ocular exposure after eye drop administration; assay type: in vivo; settings: mouse, bilateral topical instillation of 0.1% formulation QDX1
Description: Exposure data of compounds at 0.1% via eye drop administration:
On topical dosing of compounds formulated as 0.1% doses in 0.2% tyloxapol/1% HPMC/4% Mannitol, exposure levels in found in back of the eye tissues of the mouse are shown at two different time points, namely at 2 h and at 7 h.

[5] = test system: HMC-1, a mast cell leukemia line (KITD816V-positive); assay: XTT cell proliferation assay, HMC-1; assay type: cell-based; settings: for pIC50: HMC1, XTT assay, read-out: Cellular IC50 HMC-1
[6] = test system: HEL cells; assay: XTT cell proliferation assay, HEL cells; assay type: cell-based; settings: Homo sapiens
[7] = Ocular exposure after eye drop administration; assay type: in vivo; settings: mouse
[8] = test system: STAT5 phosphorylation; assay: STAT5 phosphorylation in Ba/F3-V617F cells; assay type: cell-based; settings: data not shown
Description: Protein concentration was determined using the BCA method (Pierce, Rockford, Ill.) and 100 μg of total cellular protein of each sample in 1× Laemmli buffer were subjected to Western blot analysis. The protein blot was probed with an anti-phospho-STAT5 (Tyr694/699) (Upstate Biotechnology, Charlottesville, Va.), subsequently stripped and re-probed with an anti-STAT5 antibody (Cell Signaling Technology, Danvers, Mass.). The phospho-STAT5 or STAT5 protein was visualized by the enhanced chemoluminescence method (Pierce). In vivo signaling studies were done in a similar fashion. […] Spleens were harvested 7 h after dosing and quickly homogenized in a FastPrep machine (Qbiogen, Irvine, Calif.). 100 μg of each spleen homogenate were subjected to Western blot analysis. The protein […] anti-phospho-STAT5 (Tyr694/699) (Upstate Biotechnology, Charlottesville, Va.), subsequently stripped and re-probed with an anti-STAT5 antibody (Cell Signaling Technology, Danvers, Mass.). The phospho-STAT5 or STAT5 protein was visualized by the enhanced chemoluminescence method (Pierce). In vivo signaling studies were done in a similar fashion. […] Spleens were harvested 7 h after dosing and quickly homogenized in a FastPrep machine (Qbiogen, Irvine, Calif.). 100 μg of each spleen homogenate were subjected to Western blot analysis. […]

[9] = test system: normal human dermal fibroblasts (NHDF); assay: XTT cell proliferation assay, normal human dermal fibroblast control; assay type: cell-based; settings: Control data: Normal human dermal fibroblast control
Description: (§1) HEL, CTLL-2 & normal human dermal fibroblasts (NHDF) were from the American Tissue Culture Collection Rockville, Md.). BaF/3 cells were obtained from DKFZ Cancer Research Center (Heidelberg, Germany).
(§2) BaF/3, HEL & NHDF cells were grown in RPMI 1640 medium (Gibco BRL, Gaithersburg, Md.) supplemented with penicillin, streptomycin, L-glutamine, and 10% fetal bovine serum (FBS). CTLL-2 cells were grown in the same media further supplemented with 20 U/mL recombinant IL-2 (Hoffmann-LaRoche, Nutley, N.J.). Plasmid containing the human JAK2 coding sequence was purchased from Invitrogen (Madison, Wis.). JAK2^V617F cDNA was generated by using site-directed mutagenesis to introduce the V617F mutation into the human JAK2 coding sequence followed by verification using two-directional sequencing. […]
(§3) Cell proliferation assay was performed using the XTT cell proliferation kit according to the manufacturer's instructions (Roche, Alameda, Calif.). […] The colored formazan product that is formed was measured spectrophotometrically using the Vmax spectrophotometer (Molecular Devices, Sunnyvale, Calif.) at 450 nm with correction at 650 nm. IC50 values were determined using the GraphPad Prism 4.0 software (San Diego, Calif.), wherefore OD values were plotted on y-axis (linear scale) and concentration (mM) on the x-axis (log scale).

[10] = test system: BaF/3 cells expressing JAK2^V617F and GFP; assay: JAK2V617F-driven circulating tumor model in SCID mice; assay type: in vivo, mouse; settings: oral 10, 30 or 100 mg/kg; day 11; FACS, GFP positive cells
[11] = test system: phospho-JAK2V617F, phospho-STAT5, phospho-STAT3; assay: Phosphorylation of JAK2V617F, STAT5 and STAT3 in HEL cells; assay type: cell-based; settings: Homo sapiens, read-out: IC50, levels of phospho-JAK2V617F, phospho-STAT5, phospho-STAT3
[12] = test system: CTLL-2 cells; assay: IL-2-induced JAK3-dependent proliferation of CTLL-2 cells; assay type: cell-based; settings: Mus musculus
Description: as §1, §2, §3

[13] = test system: BCR-ABL+K562 cells; assay: Growth of K562 cells; assay type: cell-based; settings: Homo sapiens, control experiments
Source text: (§4) […]. data not shown), reflecting their dependence on signaling by wild type JAK2. […].

[14] = test system: parental Ba/F3 cells; assay: Growth of parental Ba/F3 cells; assay type: cell-based; settings: Mus musculus, BaF3; data not shown
Source text: as §4

[15] = target: T1, Ba/F3 T674I (FIP1L1-PDFRA-T674I) (Homo sapiens, UniProt P16234, T674I, cells depend on it); assay: XTT cell proliferation assay, Ba/F3 T674I; assay type: cell-based; settings: for GI50: XTT assay, read-out: Cellular IC50 Ba/F3 T674I
T1 construct: fused on or other part: Q6UN15 (Pre-mRNA 3'-end-processing factor FIP1)
T1 sequence (P16234 whole entry T674I, the tested form may be a part): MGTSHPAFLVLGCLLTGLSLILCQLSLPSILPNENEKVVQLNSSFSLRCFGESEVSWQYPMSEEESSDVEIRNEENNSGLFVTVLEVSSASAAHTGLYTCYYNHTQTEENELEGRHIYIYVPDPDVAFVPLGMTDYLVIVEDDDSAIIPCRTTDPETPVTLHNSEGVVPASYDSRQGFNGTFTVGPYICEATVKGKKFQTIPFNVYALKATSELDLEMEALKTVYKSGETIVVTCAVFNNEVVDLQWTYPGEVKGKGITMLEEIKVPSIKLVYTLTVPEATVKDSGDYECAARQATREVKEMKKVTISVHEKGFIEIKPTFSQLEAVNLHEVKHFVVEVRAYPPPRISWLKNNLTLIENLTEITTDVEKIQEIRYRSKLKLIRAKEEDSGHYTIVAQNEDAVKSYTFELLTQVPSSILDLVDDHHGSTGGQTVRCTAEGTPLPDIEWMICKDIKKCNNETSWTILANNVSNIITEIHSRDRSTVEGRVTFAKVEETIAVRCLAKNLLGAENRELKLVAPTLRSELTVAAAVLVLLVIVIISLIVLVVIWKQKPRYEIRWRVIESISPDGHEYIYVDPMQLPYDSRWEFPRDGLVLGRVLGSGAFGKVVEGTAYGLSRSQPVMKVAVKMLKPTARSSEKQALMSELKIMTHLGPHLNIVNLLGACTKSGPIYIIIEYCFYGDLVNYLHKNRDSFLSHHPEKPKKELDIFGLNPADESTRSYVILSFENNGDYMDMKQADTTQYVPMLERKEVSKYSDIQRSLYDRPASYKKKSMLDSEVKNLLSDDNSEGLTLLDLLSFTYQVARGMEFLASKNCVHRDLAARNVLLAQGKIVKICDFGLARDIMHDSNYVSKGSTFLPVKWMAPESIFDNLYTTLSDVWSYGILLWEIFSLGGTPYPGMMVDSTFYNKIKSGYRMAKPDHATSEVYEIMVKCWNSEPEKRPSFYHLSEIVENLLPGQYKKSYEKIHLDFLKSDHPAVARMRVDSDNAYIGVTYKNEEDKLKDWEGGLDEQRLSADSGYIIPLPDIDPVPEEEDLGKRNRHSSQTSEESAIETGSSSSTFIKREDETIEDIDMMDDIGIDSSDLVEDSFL

[16] = target: T2, recombinant JAK2 (Homo sapiens, UniProt O60674); assay: IC50 value determinations for Jak2 kinase, luminescence-based kinase assay (Kinase-Glo); assay type: biochemical
T2 construct: purchased Upstate Cell Signaling Solutions
T2 sequence (O60674 808-1132 limits assumed): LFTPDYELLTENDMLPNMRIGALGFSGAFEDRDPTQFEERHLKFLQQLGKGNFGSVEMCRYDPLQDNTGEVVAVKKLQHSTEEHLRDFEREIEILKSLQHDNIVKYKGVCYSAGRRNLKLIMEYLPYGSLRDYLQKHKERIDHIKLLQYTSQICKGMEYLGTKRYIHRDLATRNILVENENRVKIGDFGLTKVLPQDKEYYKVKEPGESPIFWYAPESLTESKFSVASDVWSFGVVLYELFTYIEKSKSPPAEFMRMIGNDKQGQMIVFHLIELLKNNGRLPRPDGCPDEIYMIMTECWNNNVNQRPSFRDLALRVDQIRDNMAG

[17] = cornea, read-out: Concentration (nM) Cornea
[18] = retina, read-out: Concentration (nM) retina
[19] = sclera/choroid, read-out: Concentration (nM) Sclera/choroid

## Cc1ccc(NC(=O)c2ccc(CN3CCN(C)CC3)cc2)cc1Nc1nccc(-c2cccnc2)n1 [Imatinib, imatinib mesylate]
[1]
  concentrations inhibiting EOL-1 growth: picomolar concentrations

## Cc1ccc(Nc2nc(Nc3ccc(N4CCN(C)CC4)cc3)ncc2C)cc1C [CLXII]
[2]; real-time PCR, 5% FCS, sclerotic vs normal fibroblasts
  basal synthesis of collagen 1a1: inhibition of basal synthesis of collagen 1a1 in sclerotic fibroblasts, but not normal, fibroblasts; also recorded: inhibition of basal synthesis of collagen 1a1 in sclerotic, but not normal, fibroblasts
[2]; sclerotic or normal fibroblasts
  basal synthesis of fibronectin 1: dose not inhibit basal synthesis of fibronection-1 in either sclerotic or normal fibroblasts
[2]; sclerotic vs normal fibroblasts
  basal synthesis of collagen 1a2: some inhibition of basal synthesis of collagen 1a2 in sclerotic fibroblasts, but not normal, fibroblasts
[3]
  bleomycin induced dermal fibrosis: prevention of bleomycin induced dermal fibrosis

## COc1cc(Nc2nc(Nc3ccc(N4CCNCC4)cc3)ncc2C)ccc1Cl [Compound XLIV, N^4-(4-Chloro-3-methoxy-phenyl)-5-methyl-N^2-(4-piperazin-1-yl-phenyl)-pyrimidine-2,4-diamine]
[4]; [17]
  concentration at 2 h: 103000 nM
  concentration at 7 h: 26600 nM
[4]; [18]
  concentration at 2 h: 406 nM
  concentration at 7 h: 321 nM
[4]; [19]
  concentration at 2 h: 4840 nM
  concentration at 7 h: 3180 nM

## Cc1cnc(Nc2ccc(OCCN3CCCC3)cc2)nc1Nc1cccc(S(=O)(=O)NC(C)(C)C)c1 [LVII]
[1]
  pIC50: > 12.00
[5]; Homo sapiens, HMC1, read-out: Cellular IC50 HMC-1 (nM)
  IC50: 355 nM
[6]; XTT assay, Table 19, read-out: Cellular IC50 HEL
  pIC50: 6.52

## COc1cc(Nc2nc(Nc3ccc(OCCN4CCCC4)cc3)ncc2C)ccc1Cl [XVII]
[4]; [17]
  concentration at 2 h: 8840 nM
[4]; [18]
  concentration at 2 h: 495 nM
[4]; [19]
  concentration at 2 h: 6040 nM
[7]; cornea, bilateral topical instillation of 0.1% formulation QDX1, read-out: Concentration (nM) Cornea
  concentration at 6 h: 3780 nM
[7]; retina, bilateral topical instillation of 0.1% formulation QDX1, read-out: Concentration (nM) retina
  concentration at 6 h: 351 nM
[7]; sclera/choroid, bilateral topical instillation of 0.1% formulation QDX1, read-out: Concentration (nM) Sclera/choroid
  concentration at 6 h: 2970 nM

## Cc1cnc(Nc2ccc(N3CCN(C)CC3)cc2)nc1Nc1cccc(S(=O)(=O)NC(C)(C)C)c1 [XLV]
[8]
  pIC50: 6.52
[9]
  pEC50: 5.19
[10]
  number of circulating JAK2^V617F tumor cells: reduces the number of circulating JAK2^V617F tumor cells in a dose-dependent manner
[11]
  pIC50: 6.22 to 6.52
[6]; XTT, 72 hour incubation
  pEC50: 6.57
[6]; homozygous for the JAK2V617F allele, FIG. 32C, read-out: IC50, HEL cells
  pIC50: 6.52
[12]; Control data: IL-2-induced JAK3-dependent proliferation
  pEC50: 5.47
[12]; IL-2 dependent cytotoxic T-cells, FIG. 32B, read-out: IC50, growth of CTLL-2 cells
  pIC50: 5.47
[13]
  pIC50: 6.00
[14]
  pIC50: 6.33

## Cc1cn(-c2cc(NC(=O)c3ccc(C)c(Nc4nccc(-c5cccnc5)n4)c3)cc(C(F)(F)F)c2)cn1 [nilotinib]
[15]
  concentrations inhibiting growth of Ba/F3 cells harboring FIP1L1-PDFGRA-T674I: nanomolar concentrations

## Cc1cnc(Nc2ccc(OCCN3CCCC3)cc2)nc1Nc1cccc2c1OCO2 [Compound XXXVI, N^4-Benzo[1,3]dioxol-4-yl-5-methyl-N^2-[4-(2-pyrrolidin-1-yl-ethoxy)-phenyl]-pyrimidine-2,4-diamine]
[4]; [17]
  concentration at 2 h: 7870 nM
  concentration at 7 h: 18600 nM
[4]; [18]
  concentration at 2 h: 816 nM
  concentration at 7 h: 11200 nM
[4]; [19]
  concentration at 2 h: 7250 nM
  concentration at 7 h: 34800 nM

## CNC(=O)c1cc(Oc2ccc(NC(=O)Nc3ccc(Cl)c(C(F)(F)F)c3)cc2)ccn1 [Sorafenib]
[1]
  concentrations inhibiting EOL-1 growth: picomolar concentrations
  pIC50: 11.70
[5]
  sensitivity of HMC-1 growth: only a limited effect
[5]; Homo sapiens
  pIC50: 5.40
[15]
  concentrations inhibiting growth of Ba/F3 cells harboring FIP1L1-PDFGRA-T674I: nanomolar concentrations
  GI50: 16 nM

## Cc1nc(Nc2ncc(C(=O)Nc3c(C)cccc3Cl)s2)cc(N2CCN(CCO)CC2)n1 [Dasatinib, dasatinib]
[1]
  pIC50: > 12.00
[5]; Homo sapiens
  pIC50: 5.89
[15]
  GI50: 30900 nM

## Cc1cnc(Nc2ccc(N3CCN(C)CC3)cc2)nc1Nc1ccc(Cl)c2[nH]ccc12 [Compound LXXIV, N^4-(7-Chloro-1H-indol-4-yl)-5-methyl-N^2-(4-(4-methylpiperazin-1-yl)phenyl)pyrimidine-2,4-diamine]
[4]; [17]
  concentration at 2 h: 45000 nM
  concentration at 7 h: 21000 nM
[4]; [18]
  concentration at 2 h: 2120 nM
  concentration at 7 h: 2150 nM
[4]; [19]
  concentration at 2 h: 6090 nM
  concentration at 7 h: 7350 nM

## COc1cc(Nc2nc(Nc3ccc(OC4CCNCC4)cc3)ncc2C)ccc1Cl [Compound LXXXII, N^4-(4-Chloro-3-methoxy-phenyl)-5-methyl-N^2-[4-(piperidin-4-yloxy)-phenyl]-pyrimidine-2,4-diamine]
[4]; [17]
  concentration at 2 h: 69900 nM
  concentration at 7 h: 45400 nM
[4]; [18]
  concentration at 2 h: 267 nM
  concentration at 7 h: 592 nM
[4]; [19]
  concentration at 2 h: 2340 nM
  concentration at 7 h: 2250 nM

## Cc1cnc(Nc2ccc(N3CCN(C)CC3)cc2)nc1Nc1cc(C)c(Cl)c(C)c1 [Compound 38]
[16]; Table 8, SAR of the P4 region
  pIC50: 7.92

## Cc1cnc(Nc2ccc(C3CCNCC3)cc2)nc1Nc1cccc(C(C)(C)C)c1 [N4-(3-tert-butylphenyl)-5-methyl-N2-(4-(piperidin-4-yl)phenyl)pyrimidine-2,4-diamine Hydrochloride]
[16]; Table 1
  pIC50: 7.68

## Cc1ccc(Nc2nc(Nc3ccc(N4CCN(C)CC4)cc3)ncc2C)cc1S(C)(=O)=O [N4-(3-Methanesulfonyl-4-methyl-phenyl)-5-methyl-N2-[4-(4-methyl-piperazin-1-yl)-phenyl]-pyrimidine-2,4-diamine]
[16]; Table 1
  pIC50: 6.80
